Assay results reported in patent publication US9422240B2, “Partially saturated nitrogen-containing heterocyclic compound” (TAISHO PHARMACEUTICAL CO., LTD, priority 2012, dated 2016).

Assays:
[1] = biological target: T1, human PHD2 (Homo sapiens (Human), UniProt Q9GZT9); test: Test 2: human PHD2 inhibitory activity, fluorescence polarization assay of HIF-1α peptide proline hydroxylation; type: biochemical; conditions: for inhibition at 1 µM: test compound's concentration 1 μM, Test 2, fluorescence polarization assay, read-out: Percent inhibition (% at 1 μM); for IC50: human PHD2, fluorescence polarization assay, 20-min incubation at 30° C.
T1 sequence (Q9GZT9 whole entry): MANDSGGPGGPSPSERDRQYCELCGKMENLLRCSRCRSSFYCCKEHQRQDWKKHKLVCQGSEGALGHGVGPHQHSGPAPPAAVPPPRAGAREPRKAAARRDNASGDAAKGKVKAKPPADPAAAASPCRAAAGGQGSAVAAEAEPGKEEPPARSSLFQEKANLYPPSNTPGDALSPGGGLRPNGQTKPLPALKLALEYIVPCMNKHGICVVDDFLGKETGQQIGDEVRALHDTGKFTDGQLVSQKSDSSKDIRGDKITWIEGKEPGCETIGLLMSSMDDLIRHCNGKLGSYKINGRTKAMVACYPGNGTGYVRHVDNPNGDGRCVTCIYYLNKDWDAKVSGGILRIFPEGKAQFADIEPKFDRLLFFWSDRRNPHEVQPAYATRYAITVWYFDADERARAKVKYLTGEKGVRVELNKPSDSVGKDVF
Outline: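 Enzyme from lysate of cells expressing human PHD2 (NM_022051), 40 ng/well, added to compound and 19-residue HIF-1α peptide substrate; 20 min at 30° C., EDTA quench. Prolyl hydroxylation detected by HIF-OH antibody binding via fluorescence polarization; inhibition relative to compound-free wells.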

[2] = biological target: T1, human PHD2; test: Test 1: human PHD2 inhibitory activity, [14C]-2-oxoglutarate to [14C]-succinic acid radiometric assay with HIF-1α peptide; type: biochemical; conditions: test compound's concentration 1 μM; Test 1, [14C]-2-oxoglutarate radiometric assay; read-out: Percent inhibition (% at 1 μM)
Outline: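 Lysate from HighFive insect cells expressing human PHD2 (4 μg/well) was incubated for 15 min at 37° C with a 19-residue HIF-1α peptide and [14C]-2-oxoglutarate. Unreacted 2-oxoglutarate was precipitated with DNPH and filtered off, and [14C]-succinic acid was counted. Inhibition was calculated relative to substrate-free and compound-free controls.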

| SMILES | inhibition at 1 µM [1] | inhibition at 1 µM [2] | IC50 [1] |
| --- | --- | --- | --- |
| CC1(COCc2ccc(CN3CCC(O)=C(C(=O)NCC(=O)O)C3=O)cc2)CC1 [Ex. 1-233] | 93% | 91% |  |
| CCOc1ccc(CN2C(=O)C(C(=O)NCC(=O)O)=C(O)CC2(C)C)cc1 [Ex. 1-234] | 62% | 61% |  |
| O=C(O)CNC(=O)C1=C(O)CC2(CCC2)N(Cc2ccc(C3CC3)cc2)C1=O [Ex. 1-236] | 87% | 84% |  |
| O=C(O)CNC(=O)C1=C(O)C2(CCC2)CN(Cc2ccc(C3CC3)cc2)C1=O [Ex. 1-237] | 84% | 74% |  |
| O=C(O)CNC(=O)C1=C(O)CCN(Cc2ccc(OCC3CCC3)cc2)C1=O [Ex. 1-238] | 99% | 92% |  |
| CC1(C)CC(O)=C(C(=O)NCC(=O)O)C(=O)N1Cc1ccc(OCC2CCC2)cc1 [Ex. 1-239] | 87% | 74% |  |
| O=C(O)CNC(=O)C1=C(O)CCN(Cc2ccc(OCc3ccccc3)cc2)C1=O [Ex. 1-240] | 97% | 91% |  |
| O=C(O)CNC(=O)C1=C(O)CCN(Cc2ccc(OCc3ccc(F)cc3)cc2)C1=O [Ex. 1-241] | 101% | 97% |  |
| O=C(O)CNC(=O)C1=C(O)CCN(Cc2ccc(OCc3ccc(Cl)cc3)cc2)C1=O [Ex. 1-242] | 101% | 100% |  |
| O=C(O)CNC(=O)C1=C(O)CCN(Cc2ccc(C3CCC3)c(C(F)(F)F)c2)C1=O [Ex. 1-243] | 92% | 76% |  |
| CC1(C)CC(O)=C(C(=O)NCC(=O)O)C(=O)N1C[C@@H]1C[C@@H]1c1ccccc1 [Ex. 1-244] | 50% | 47% |  |
| O=C(O)CNC(=O)C1=C(O)CCN(Cc2ccc(C(F)(F)F)c(C3CCC3)c2)C1=O [Ex. 1-245] | 78% | 80% |  |
| CC1(C)CC(O)=C(C(=O)NCC(=O)O)C(=O)N1Cc1ccc(OCCC2CC2)cc1 [Ex. 1-247] | 82% | 81% |  |
| O=C(O)CNC(=O)C1=C(O)CCN(Cc2ccc(CCC3CC3)cc2)C1=O [Ex. 1-249] | 94% | 103% |  |
| O=C(O)CNC(=O)C1=C(O)C2(CCC2)CN(Cc2ccc(OCC3CC3)cc2)C1=O [Ex. 1-250] | 81% | 80% |  |
| O=C(O)CNC(=O)C1=C(O)CC2(CC2)N(Cc2ccc(OCC3CC3)cc2)C1=O [Ex. 1-251] | 83% | 90% |  |
| O=C(O)CNC(=O)C1=C(O)CCN(Cc2ccc(Oc3ccc(F)cc3)nc2)C1=O [Ex. 1-252] | 98% | 104% | 87 nM |
| O=C(O)CNC(=O)C1=C(O)CC2(CCCCC2)N(Cc2ccccc2)C1=O [Ex. 1-253] | 49% | 45% |  |
| O=C(O)CNC(=O)C1=C(O)CCN(Cc2ccc(Oc3ccc(C(F)(F)F)cc3)nc2)C1=O [Ex. 1-254] | 96% | 103% | 24 nM |

| SMILES | inhibition at 1 µM [1] | inhibition at 1 µM [2] | IC50 [1] |
| --- | --- | --- | --- |
| Cc1cccc(Oc2ccc(CN3CCC(O)=C(C(=O)NCC(=O)O)C3=O)cn2)c1 [Ex. 1-255] | 90% | 99% | 66 nM |
| O=C(O)CNC(=O)C1=C(O)CCN(Cc2ccc(Oc3cccc(F)c3)nc2)C1=O [Ex. 1-256] | 91% | 101% | 66 nM |
| Cc1cccc(Oc2ccc(CN3CCC(O)=C(C(=O)NCC(=O)O)C3=O)cc2)c1 [Ex. 1-257] | 89% | 95% | 75 nM |
| O=C(O)CNC(=O)C1=C(O)CCN(Cc2ccc(Oc3cccc(F)c3)cc2)C1=O [Ex. 1-258] | 90% | 94% | 63 nM |
| O=C(O)CNC(=O)C1=C(O)CCN(Cc2ccc(Oc3ccc(F)cc3)cn2)C1=O [Ex. 1-259] | 91% | 92% | 96 nM |
| O=C(O)CNC(=O)C1=C(O)CCN(Cc2ccc(Sc3ccc(Cl)cc3)nc2)C1=O [Ex. 1-261] | 97% | 99% |  |
| O=C(O)CNC(=O)C1=C(O)CCN(Cc2ccc(OC3CCC3)cc2)C1=O [Ex. 1-262] | 87% | 88% |  |
| Cc1ccccc1-n1ncc(CN2CCC(O)=C(C(=O)NCC(=O)O)C2=O)c1C [Ex. 1-263] | 83% | 81% |  |
| O=C(O)CNC(=O)C1=C(O)CCN(Cc2ccc(Oc3ccc(Cl)cc3)cc2)C1=O [Ex. 1-265] | 100% | 98% | 24 nM |
| O=C(O)CNC(=O)C1=C(O)CC2(CC2)N(Cc2ccc(C3CC3)cc2)C1=O [Ex. 1-266] | 89% | 83% |  |
| O=C(O)CNC(=O)C1=C(O)CC2(CCC2)N(Cc2ccc(OCC3CC3)cc2)C1=O [Ex. 1-267] | 86% | 81% |  |
| Cc1c(CN2CCC(O)=C(C(=O)NCC(=O)O)C2=O)cnn1-c1ccccc1 [Ex. 1-268] | 85% | 78% |  |
| O=C(O)CNC(=O)C1=C(O)CCN(Cc2ccc3c(c2)CCC3)C1=O [Ex. 1-269] | 89% | 85% |  |
| O=C(O)CNC(=O)C1=C(O)CCN(Cc2ccc3sccc3c2)C1=O [Ex. 1-270] | 90% | 88% |  |
| O=C(O)CNC(=O)C1=C(O)CCN(Cc2ccc(OC3CCCC3)cc2)C1=O [Ex. 1-271] | 91% | 91% |  |
| CC1(C)CC(O)=C(C(=O)NCC(=O)O)C(=O)N1Cc1ccc(OC2CCCC2)cc1 [Ex. 1-272] | 82% | 65% |  |
| Cc1ccc(Oc2ccc(CN3CCC(O)=C(C(=O)NCC(=O)O)C3=O)cc2)cn1 [Ex. 1-273] | 92% | 99% | 112 nM |
| O=C(O)CNC(=O)C1=C(O)CCN(Cc2ccc(Oc3ccccc3F)nc2)C1=O [Ex. 1-274] | 94% | 92% | 108 nM |
| Cc1ccccc1Oc1ccc(CN2CCC(O)=C(C(=O)NCC(=O)O)C2=O)cn1 [Ex. 1-275] | 94% | 85% | 99 nM |

| SMILES | inhibition at 1 µM [1] | inhibition at 1 µM [2] | IC50 [1] |
| --- | --- | --- | --- |
| Cc1ccc(Oc2ccc(CN3CC(C)(C)C(O)=C(C(=O)NCC(=O)O)C3=O)cn2)cc1 [Ex. 1-276] | 92% | 93% |  |
| Cc1ccc(Oc2ccc(CN3CC4(CC4)C(O)=C(C(=O)NCC(=O)O)C3=O)cn2)cc1 [Ex. 1-277] | 97% | 108% |  |
| Cc1ccc(Oc2ccc(CN3CC4(CCC4)C(O)=C(C(=O)NCC(=O)O)C3=O)cn2)cc1 [Ex. 1-278] | 94% | 93% |  |
| O=C(O)CNC(=O)C1=C(O)C2(CC2)CN(Cc2ccc(OCC3CC3)cc2)C1=O [Ex. 1-279] | 91% | 90% |  |
| Cc1ccc(Oc2ccc(CN3C(=O)C(C(=O)NCC(=O)O)=C(O)CC34CCC4)cn2)cc1 [Ex. 1-280] | 98% | 109% |  |
| CC1(C)CC(O)=C(C(=O)NCC(=O)O)C(=O)N1Cc1csc(-c2ccccc2)n1 [Ex. 1-281] | 77% | 70% |  |
| O=C(O)CNC(=O)C1=C(O)CCN(Cc2ccc(Oc3ccccc3F)cc2)C1=O [Ex. 1-282] | 99% | 101% | 77 nM |
| Cc1ccccc1Oc1ccc(CN2CCC(O)=C(C(=O)NCC(=O)O)C2=O)cc1 [Ex. 1-283] | 97% | 99% | 63 nM |
| O=C(O)CNC(=O)C1=C(O)CCN(Cc2ccc(Oc3cccc(Cl)c3)nc2)C1=O [Ex. 1-284] | 103% | 107% | 40 nM |
| O=C(O)CNC(=O)C1=C(O)CCN(Cc2ccc(Oc3cccc(C(F)(F)F)c3)nc2)C1=O [Ex. 1-285] | 100% | 106% | 43 nM |
| COc1cccc(Oc2ccc(CN3CCC(O)=C(C(=O)NCC(=O)O)C3=O)cc2)c1 [Ex. 1-286] | 96% | 95% | 61 nM |
| O=C(O)CNC(=O)C1=C(O)CCN(Cc2ccc(Oc3cccc(OC(F)(F)F)c3)nc2)C1=O [Ex. 1-287] | 104% | 94% | 45 nM |
| O=C(O)CNC(=O)C1=C(O)CCN(Cc2ccc(Oc3ccc(F)cn3)cc2)C1=O [Ex. 1-288] | 91% | 90% | 146 nM |
| O=C(O)CNC(=O)C1=C(O)CCN(Cc2ccc(Oc3ccc(Cl)cn3)cc2)C1=O [Ex. 1-289] | 98% | 95% | 68 nM |
| O=C(O)CNC(=O)C1=C(O)CCN(Cc2ccccc2Oc2ccc(F)cc2)C1=O [Ex. 1-290] | 86% | 63% |  |
| O=C(O)CNC(=O)C1=C(O)CCN(Cc2ccc(OCC(F)(F)F)cc2)C1=O [Ex. 1-291] | 86% | 75% |  |
| O=C(O)CNC(=O)C1=C(O)CCN(Cc2ccc(OCC(F)(F)F)c(F)c2)C1=O [Ex. 1-292] | 86% | 83% |  |
| CC1(C)CC(O)=C(C(=O)NCC(=O)O)C(=O)N1Cc1cnc(-c2ccccc2)[nH]1 [Ex. 1-293] | 33% | 35% |  |
| CC1(C)CC(O)=C(C(=O)NCC(=O)O)C(=O)N1Cc1nc(-c2ccccc2)cs1 [Ex. 1-294] | 68% | 51% |  |
